Data: patent US10072011B2, “Substituted bridged urea analogs as sirtuin modulators” (GlaxoSmithKline Intellectual Property (No.2) Limited, priority 2014, dated 2018)
Like-named read-outs stand apart in the source and are kept apart here.

Molecular target: T1, SIRT1 (Homo sapiens, UniProt Q96EB6)
T1 sequence (Q96EB6 1-747): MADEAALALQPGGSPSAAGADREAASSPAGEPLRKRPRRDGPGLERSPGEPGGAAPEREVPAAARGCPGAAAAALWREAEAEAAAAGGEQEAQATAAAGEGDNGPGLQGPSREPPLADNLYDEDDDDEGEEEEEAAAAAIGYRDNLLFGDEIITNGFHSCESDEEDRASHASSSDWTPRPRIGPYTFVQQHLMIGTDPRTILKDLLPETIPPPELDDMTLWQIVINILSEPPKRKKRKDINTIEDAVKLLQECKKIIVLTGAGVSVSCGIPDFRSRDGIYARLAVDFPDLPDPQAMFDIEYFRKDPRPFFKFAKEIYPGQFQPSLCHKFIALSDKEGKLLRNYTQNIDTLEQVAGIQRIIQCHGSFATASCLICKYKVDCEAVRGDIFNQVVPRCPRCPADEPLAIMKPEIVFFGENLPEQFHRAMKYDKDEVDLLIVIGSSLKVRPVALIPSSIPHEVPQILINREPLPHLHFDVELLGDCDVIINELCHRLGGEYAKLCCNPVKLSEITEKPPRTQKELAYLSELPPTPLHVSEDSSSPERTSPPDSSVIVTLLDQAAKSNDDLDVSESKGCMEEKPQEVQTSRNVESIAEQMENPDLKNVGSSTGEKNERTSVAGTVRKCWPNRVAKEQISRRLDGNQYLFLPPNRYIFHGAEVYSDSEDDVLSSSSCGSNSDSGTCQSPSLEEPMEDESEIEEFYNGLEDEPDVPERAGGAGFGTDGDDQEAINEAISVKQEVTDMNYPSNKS
Assay: Trp mass spectrometry assay of SIRT1 activation (Ac-R-H-K-K(Ac)-W-NH2 peptide)
Type: biochemical
Details: for Emax: 25 min, read-out: TRP MAX RESP (percent maximum fold activation)
Procedure, shortened: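 Mass spectrometry read-out (OAADPR formed, or deacetylated Trp peptide) after a 25 min NAD-dependent deacetylation by E. coli-expressed His-SIRT1, stopped with formic acid.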

[1] = Trp peptide 0.5 μM, 120 μM βNAD+, 10 nM SIRT1, 25 min at 25° C., relative to control (100%)
[2] = Trp peptide 0.5 μM, 120 μM βNAD+, 10 nM SIRT1, 25 min at 25° C.

Structure (SMILES)	Emax [1]	TRP Activity (EC1.5, concentration of test compound that results in 150% activation of SIRT1) [2]	TRP MAX RESP (percent maximum fold activation) [1]	Emax
Cn1cnc(NC(=O)N2c3nc(C(=O)NCC(F)(F)F)ccc3N3CC[C@H]2C3)cc1=O [Example 120, (4S)—N5-(1-methyl-6-oxo-1,6-dihydropyrimidin-4-yl)-N7-(2,2,2-trifluoroethyl)-3,4-dihydro-1,4-methanopyrido[2,3-b][1,4]diazepine-5,7(2H)-dicarboxamide]	> 150%	B (EC1.5 1-25 μM)		
Cc1ccc2c(NC(=O)N3c4nc(C(=O)NC[C@@H](N)C(F)(F)F)ccc4N4CC[C@H]3C4)n[nH]c2n1 (single isomer, unassigned) [Example 233]	> 150%			
CC(C)NC(=O)c1ccc2c(n1)N(C(=O)Nc1ccccn1)[C@H]1CCN2C1 [Example 32, (4S)—N7-isopropyl-N5-(pyridin-2-yl)-3,4-dihydro-1,4-methanopyrido[2,3-b][1,4]diazepine-5,7(2H)-dicarboxamide]		A (EC1.5<1 μM)		> 150%
C#Cc1ccnc(NC(=O)N2c3nc(C(=O)NCC(F)(F)F)ccc3N3CC[C@H]2C3)c1 [Example 164, (4S)—N5-(4-ethynylpyridin-2-yl)-N7-(2,2,2-trifluoroethyl)-3,4-dihydro-1,4-methanopyrido[2,3-b][1,4]diazepine-5,7(2H)-dicarboxamide]	> 150%	A (EC1.5<1 μM)		
O=C(NC1CC1(F)F)c1ccc2c(n1)N(C(=O)Nc1ccc(F)cn1)[C@H]1CCN2C1 (single isomer, unassigned) [Example 242]	> 150%	A (EC1.5<1 μM)		
O=C(N[C@H](CO)C(F)(F)F)c1ccc2c(n1)N(C(=O)Nc1ccc(F)cn1)[C@H]1CCN2C1 [Example 82, (4S)—N5-(5-fluoropyridin-2-yl)-N7-((R)-1,1,1-trifluoro-3-hydroxypropan-2-yl)-3,4-dihydro-1,4-methanopyrido[2,3-b][1,4]diazepine-5,7(2H)-dicarboxamide]	> 150%	A (EC1.5<1 μM)		
O=C(NCC(F)(F)F)c1ccc2c(n1)N(C(=O)Nc1cnc(OC[C@@H](O)CO)cn1)[C@H]1CCN2C1 [Example 118, (4S)—N5-(5-((S)-2,3-dihydroxypropoxy)pyrazin-2-yl)-N7-(2,2,2-trifluoroethyl)-3,4-dihydro-1,4-methanopyrido[2,3-b][1,4]diazepine-5,7(2H)-dicarboxamide]	> 150%	B (EC1.5 1-25 μM)		
O=C(NC[C@H](O)C(F)(F)F)c1ccc2c(n1)N(C(=O)Nc1ccc(F)cn1)[C@H]1CCN2C1 [Example 81, (4S)—N5-(5-fluoropyridin-2-yl)-N7-((S)-3,3,3-trifluoro-2-hydroxypropyl)-3,4-dihydro-1,4-methanopyrido[2,3-b][1,4]diazepine-5,7(2H)-dicarboxamide]	> 150%	A (EC1.5<1 μM)		
Cc1nc(NC(=O)N2c3nc(C(=O)NC4CC4)ccc3N3CC[C@H]2C3)co1 [Example 255, (4S)—N7-cyclopropyl-N5-(2-methyloxazol-4-yl)-3,4-dihydro-1,4-methanopyrido[2,3-b][1,4]diazepine-5,7(2H)-dicarboxamide]	> 150%	B (EC1.5 1-25 μM)		
O=C(NCCC(F)(F)F)c1ccc2c(n1)N(C(=O)Nc1ccc(F)cn1)[C@H]1CCN2C1 [Example 79, (4S)—N5-(5-fluoropyridin-2-yl)-N7-(3,3,3-trifluoropropyl)-3,4-dihydro-1,4-methanopyrido[2,3-b][1,4]diazepine-5,7(2H)-dicarboxamide]	> 150%	A (EC1.5<1 μM)		
Cc1ncc(-c2ccnc(NC(=O)N3c4nc(C(=O)N[C@H](C)C(F)(F)F)c(Cl)cc4N4CC[C@H]3C4)c2)o1 [Example 281, (4S)-8-chloro-N5-(4-(2-methyloxazol-5-yl)pyridin-2-yl)-N7-((R)-1,1,1-trifluoropropan-2-yl)-3,4-dihydro-1,4-methanopyrido[2,3-b][1,4]diazepine-5,7(2H)-dicarboxamide]	> 150%	B (EC1.5 1-25 μM)		
C[C@@H](NC(=O)c1nc2c(cc1F)N1CC[C@@H](C1)N2C(=O)Nc1cc(OC[C@H](O)CO)ccn1)C(F)(F)F [Example 283, (4S)—N5-(4-((R)-2,3-dihydroxypropoxy)pyridin-2-yl)-8-fluoro-N7-((R)-1,1,1-trifluoropropan-2-yl)-3,4-dihydro-1,4-methanopyrido[2,3-b][1,4]diazepine-5,7(2H)-dicarboxamide]	> 150%	A (EC1.5<1 μM)		
O=C(NC1CC1(F)F)c1ccc2c(n1)N(C(=O)Nc1cnccn1)[C@H]1CCN2C1 (single isomer, unassigned) [Example 273]		B (EC1.5 1-25 μM)	A (Fold activation≥150%)	

Continued, in another order:

Emax [1]	TRP Activity (EC1.5, concentration of test compound that results in 150% activation of SIRT1) [2]	TRP MAX RESP (percent maximum fold activation) [1]	Structure (SMILES)	Emax
> 150%	A (EC1.5<1 μM)		C[C@@H](NC(=O)c1nc2c(cc1Cl)N1CC[C@@H](C1)N2C(=O)Nc1ccccn1)C(F)(F)F [Example 280, (4S)-8-chloro-N5-(pyridin-2-yl)-N7-((R)-1,1,1-trifluoropropan-2-yl)-3,4-dihydro-1,4-methanopyrido[2,3-b][1,4]diazepine-5,7(2H)-dicarboxamide]	
> 150%	A (EC1.5<1 μM)		CC(F)(F)CNC(=O)c1ccc2c(n1)N(C(=O)Nc1ccccn1)[C@H]1CCN2C1 [Example 47, (4S)—N7-(2,2-difluoropropyl)-N5-(pyridin-2-yl)-3,4-dihydro-1,4-methanopyrido[2,3-b][1,4]diazepine-5,7(2H)-dicarboxamide]	
> 150%	A (EC1.5<1 μM)		CC(C)[C@@H](C)NC(=O)c1ccc2c(n1)N(C(=O)Nc1ccccn1)[C@H]1CCN2C1 [Example 45, (4S)—N7-((R)-3-methylbutan-2-yl)-N5-(pyridin-2-yl)-3,4-dihydro-1,4-methanopyrido[2,3-b][1,4]diazepine-5,7(2H)-dicarboxamide]	
> 150%	A (EC1.5<1 μM)		Cc1ccc(NC(=O)N2c3nc(C(=O)N[C@H](C)C(F)(F)F)ccc3N3CC[C@H]2C3)nc1 [Example 56, (4S)—N5-(5-methylpyridin-2-yl)-N7-((R)-1,1,1-trifluoropropan-2-yl)-3,4-dihydro-1,4-methanopyrido[2,3-b][1,4]diazepine-5,7(2H)-dicarboxamide]	
> 150%	B (EC1.5 1-25 μM)		C[C@@H](O)CNC(=O)c1ccc2c(n1)N(C(=O)Nc1ccccn1)[C@H]1CCN2C1 [Example 203, (4S)—N7-((R)-2-hydroxypropyl)-N5-(pyridin-2-yl)-3,4-dihydro-1,4-methanopyrido[2,3-b][1,4]diazepine-5,7(2H)-dicarboxamide]	
> 150%	A (EC1.5<1 μM)		CC(C)(C)CNC(=O)c1ccc2c(n1)N(C(=O)Nc1ccccn1)[C@H]1CCN2C1 [Example 15, (4S)—N-7-neopentyl-N-5-(pyridin-2-yl)-3,4-dihydro-1,4-methanopyrido[2,3-b][1,4]diazepine-5,7(2H)-dicarboxamide]	
< 150%	A (EC1.5<1 μM)		Cc1cnnc(NC(=O)N2c3nc(C(=O)N[C@H](C)C(F)(F)F)ccc3N3CC[C@H]2C3)c1 [Example 300, (4S)—N5-(5-methylpyridazin-3-yl)-N7-((R)-1,1,1-trifluoropropan-2-yl)-3,4-dihydro-1,4-methanopyrido[2,3-b][1,4]diazepine-5,7(2H)-dicarboxamide]	
> 150%	B (EC1.5 1-25 μM)		Cc1ccnc(NC(=O)N2c3nc(C(=O)NC4CC4)ccc3N3CC[C@H]2C3)c1 [Example 22, (4S)—N7-cyclopropyl-N5-(4-methylpyridin-2-yl)-3,4-dihydro-1,4-methanopyrido[2,3-b][1,4]diazepine-5,7(2H)-dicarboxamide]	
